Measurements published in patent publication US4293713A, “Novel 1,1,3,5-substituted biuret compound and a pharmaceutical composition containing the same” (priority 1979, dated 1981).
Like-named read-outs stand apart in the source and are kept apart here.

Assays:
[1] = tested on: Wistar strain of male rats; experiment: Anti-pyretic activity (dry-yeast induced fever); assay type: in vivo, rat (Wistar strain; settings: oral, up to 4 hours after administration, dose not given
Protocol: (§1) Next, several tests for determining the pharmacological properties, in that acute toxicity, anti-pyretic activity, analgesic activity and anti-inflammatory activity of the present 1,1,3,5-substituted biuret compounds of the formula (1) were conducted and the test results are shown in Table (2). In the tests, each compounds to be tested was used as a suspension in 0.25% carboxymethylcellulose solution. Methods for testing are explained as follows:
According to the method reported by Tanabe [Folia Pharmacologia Japonica, Vol. 73, pp. 803 (1977)], the Wistar strain of male rats (150-180 g body weight) were used as test animals. The rats were fasted overnight, and 1 ml/100 g (body weight) of 10% dry-yeast suspension were subcutaneously injected on the back of the rats. Five hours after the injection, the test compound was administered orally, then the body temperature of the rat was measured at time sequences. Anti-pyretic activity of the test compound was determined as the FI (febril index) by integrating pyrogenetic curve up to 4 hours after the administration of the test compound with time, and indicated as inhibitory ratio (%) shown by the following formula, [formula]

[2] = tested on: ddy strain of male mice; experiment: Analgesic activity, acetic acid-induced stretching method; assay type: in vivo, mouse (ddy strain; settings: Mus musculus, po; for inhibition in vivo at 100 mg/kg: read-out: Analgesic activity, acetic acid-induced stretching method, inhibitory ratio; for ED50: read-out: Analgesic activity, acetic acid-induced stretching method, 50% effective dose, ED50 (values with Δ marks)
Protocol: as §1
According to the method reported by Koster et al., [Fed. Proc., Vol. 18, pp. 412 (1959)], the ddy strain of male mice (body weight, 20-25 g) were used as test animals. The mice were fasted overnight, 100 mg/kg body weight of the test compound was administered orally, then 1 hour after the administration, 0.2 ml of 0.7% acetic acid solution was injected intraperitoneally. The acetic acid-induced stretching symptom of mouse was observed. Analgesic activity of the test compound was calculated as the inhibitory ratio (%). In Table 2, the values in Parentheses show the data obtained from the test by using the dosage other than 100 mg/kg body weight. Further, the values indicated with Δ marks show 50% effective dose, ED50 (mg/kg body weight).

[3] = tested on: ddy strain of male mice; experiment: Analgesic activity, Haffner method; assay type: in vivo, mouse (ddy strain; settings: with threshold morphine hydrochloride s.c.; for Analgesic activity, Haffner method, 50% effective dose, ED50 (values with Δ marks): oral, range in parentheses
Protocol: as §1
According to the modified method reported by Fujimura et al., [Bulletin of the Institute for Chemical Research, Kyoto University, No. 25, pp. 36 (1951)], the ddy strain of male mice (body weight, 20-25 g) were used as test animals. The mice were fasted overnight, 100 mg/kg body weight of the test compound was administered orally, then 45 minutes after the administration, the threshold amount (1.5-2.5 mg/kg body weight) of morphine hydrochloride was injected subcutaneously. Then 1-hour pain reaction of the mouse caused by a clamp was observed. Analgesic activity of the test compound was calculated as the inhibitory ratio (%). In Table 2, the values in parentheses show the data obtained from the test by using the dosage other than 100 mg/kg body weight. Further, the values indicated with Δ marks show 50% effective dose, ED50 (mg/kg body weight).

[4] = Acute toxicity (oral, 7 days observation); assay type: in vivo; settings: mouse, in vivo; oral, mice, 7 days; read-out: Acute toxicity, 50% lethal dose, LD50 (values with Δ marks)
Protocol: as §1
The ddy strain of male mice (body weight, 20-25 g) were used as test animals. The mice were fasted overnight and the compound to be tested was administered orally. […] The lethal dose (mg/kg, body weight) of the test compound was determined in connection with the death number of mice/the number of mice tested. In Table 2, the values indicated with Δ marks are 50% lethal dose, LD50 (mg/kg, body weight).

[5] = tested on: Wistar strain of male rats; experiment: Anti-inflammatory activity, acute carrageenin-induced inflammatory test; assay type: in vivo, rat (Wistar strain; settings: Rattus norvegicus
Protocol: as §1
According to the method of acute carrageenin-induced inflammatory test [Folia Pharmacologia Japonica, Vol. 56, pp. 575 (1960)], the Wistar strain of male rats (body weight, 150-180 g) were used as test animals. The rats were fasted overnight, 100 mg/kg body weight of the test compound was administered orally, then 1 hour after the administration, 0.1 ml of 1% carrageenin solution, as the inflammation inducing agent, was injected subcutaneously to the hindpaw of the rat and the volume of the hindpaw was measured at time sequences. Anti-inflammatory activity of the test compound was calculated as inflammation inhibitory ratio (%) at 3 hours after the injection of the inflammation inducing agent.

[6] = 100 mg/kg oral, rats, 3 hours after carrageenin, read-out: Anti-inflammatory activity, inflammation inhibitory ratio
[7] = po, 3 h, read-out: Anti-inflammatory activity, inflammation inhibitory ratio
[8] = po, 2 h, read-out: Anti-inflammatory activity, inflammation inhibitory ratio (2 hours value)

| Structure (SMILES) | Anti-pyretic activity, inhibitory ratio of febril index (FI) [1] [%] | inhibition in vivo at 100 mg/kg [2] [%] | Analgesic activity, Haffner method, inhibitory ratio ([3]; 100 mg/kg oral) [%] | LD50 at 168 h [4] [mg/kg] | inhibition in vivo at 100 mg/kg [5, 6] [%] | inhibition in vivo at 100 mg/kg [5, 7] [%] | ED50 [2] [mg/kg] | Analgesic activity, Haffner method, 50% effective dose, ED50 (values with Δ marks) [3] | Analgesic activity, Haffner method, inhibitory ratio ([3]; 200 mg/kg oral) [%] | inhibition in vivo at 100 mg/kg [5, 8] [%] |
| --- | --- | --- | --- | --- | --- | --- | --- | --- | --- | --- |
| CN(C)C(=O)N(C)C(=O)Nc1c(Cl)cccc1Cl [compound 9, 1,1,3-Trimethyl-5-(2,6-dichlorophenyl)biuret] | 29 | 50 | 50 | 1100 | 25 | – | – | – | – | – |
| Cc1ccccc1NC(=O)N(C)C(=O)N(C)C [compound 20, 1,1,3-Trimethyl-5-(2-methylphenyl)biuret] | 41 | 37.5 | 50 | 1000 | – | 29 | – | – | – | – |
| CN(C)C(=O)N(C)C(=O)Nc1ccc(F)cc1 [Compound No. 3, 1,1,3-Trimethyl-5-(4-fluorophenyl)biuret] | 61 | 87.5 | 62.5 | 930 | 37 | – | – | – | – | – |
| CN(C)C(=O)N(C)C(=O)Nc1ccc(Cl)cc1 [Compound No. 7, 1,1,3-trimethyl-5-p-chlorophenylbiuret] | 84 | – | – | 1200 | – | 47 | 12 | 20(11-35) mg/kg | – | – |
| CN(C)C(=O)N(C)C(=O)Nc1cccc(Cl)c1 [compound 6, 1,1,3-Trimethyl-5-(3-chlorophenyl)biuret] | 43 | 62.5 | – | 1480 | – | – | – | – | 75 | 30 |
| CN(C)C(=O)N(C)C(=O)Nc1ccc(Br)cc1 [Compound No. 11, 1,1,3-Trimethyl-5-(4-bromophenyl)biuret] | 103 | – | – | 1350 | – | – | 60 | 74(49-113) mg/kg | – | 48 |
